Activity calls are given as the source filed them. The rule behind the calls is not given here.

We go through 47 compounds from PubChem BioAssay AID977613 (Broad Institute, 2014).

The experiment deals with Broad 7084-01 inhibitor HTS, set 2. As to the kind of experiment: inhibitors in Broad screen 7084-01, set 2 (AID 977613).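 Note: host cells are infected with parasite promastigotes that become internalized.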

Regarding `CCS(=O)(=O)N1CC(=O)N2[C@@H](CO)[C@@H](c3ccc(C#CC4CCCCC4)cc3)[C@@H]2C1`, the active concentration is > 10 µM (inactive).
With `N#C[C@H]1[C@H](c2ccccc2-c2ccccc2F)[C@H](CO)N1C(=O)Cc1ccccc1`, the active concentration was > 10 µM (inactive).
With `O=C(C[C@H]1CC[C@H]2[C@@H](COC[C@@H](O)CN2CC2CC2)O1)NCc1ccc(Cl)cc1`, the active concentration was > 10 µM (inactive).
In the case of `O=C(C[C@@H]1CC[C@H]2[C@@H](COC[C@H](O)CN2Cc2cccc(F)c2)O1)NCc1cccc(F)c1`, the active concentration was > 10 µM (inactive).
In the case of `C/C=C/c1ccccc1[C@@H]1[C@@H](C#N)N(C(C)=O)[C@@H]1CO`, the active concentration is > 10 µM (inactive).
As to `C/C=C/c1ccc([C@H]2[C@@H](CO)N(CC3CCCC3)C23CN(C(=O)CC)C3)cc1`, the active concentration was > 10 µM (inactive).
`CCN1[C@@H]2c3ccc(-c4ccccc4F)c(=O)n3C[C@H]1[C@H](CO)[C@H]2C(=O)NCc1ccc(F)cc1`: the active concentration was > 10 µM (inactive).
As to `CCCC#Cc1ccc([C@@H]2[C@H]3CN(C(=O)CN4CCOCC4)CC(=O)N3[C@H]2CO)cc1`, the active concentration was > 10 µM (inactive).
Consider `CN(C)CC(=O)N1[C@H](C#N)[C@@H](c2ccccc2-c2ccccc2F)[C@H]1CO`, for which the active concentration is > 10 µM (inactive).
On to `CN1C[C@@H]2[C@H](c3ccccc31)[C@H](CO)N2Cc1ccccc1Cl`, for which the active concentration is > 10 µM (inactive).
To `CN1c2ccc(C#Cc3cccnc3)cc2[C@H]2[C@H](CCN2S(=O)(=O)c2ccccc2F)[C@@H]1CO` belongs > 10 µM (inactive); to `CCCC(=O)N1CC2(C1)CN(C(=O)c1ccc(F)cc1)[C@H](CO)c1[nH]c3cc(OC)ccc3c12`, > 10 µM (inactive).
With `O=C(C[C@H]1CC[C@H]2[C@@H](COC[C@H](O)CN2C(=O)Cc2ccccc2)O1)NC1CCCC1` the figure was > 10 µM (inactive); with `CCS(=O)(=O)N1CC2(CN(CC3CCOCC3)[C@@H](CO)c3c2c2ccc(OC)cc2n3C)C1`, > 10 µM (inactive).
For `CCCC#Cc1ccc([C@H]2[C@H]3CN(C(=O)CN4CCOCC4)CC(=O)N3[C@H]2CO)cc1`, the active concentration was > 10 µM (inactive).
Take `O=C(C[C@@H]1CC[C@@H]2[C@H](COC[C@H](O)CN2C(=O)c2ccc3c(c2)OCO3)O1)NC1CCC1`: the active concentration is > 10 µM (inactive).
Take `N#C[C@H]1[C@@H](c2ccccc2C2=CCCCC2)[C@H](CO)N1C(=O)C1CCOCC1`: the active concentration is > 10 µM (inactive).
Regarding `COc1ccc(NC(=O)N2CC(=O)N3[C@@H](CO)[C@H](c4ccc(Br)cc4)[C@@H]3C2)cc1`, the active concentration is > 10 µM (inactive).
As for `O=C(c1cccc(F)c1)N1C[C@@H]2[C@H](c3ccccc31)[C@@H](CO)N2C(=O)C1CCOCC1`, the active concentration is > 10 µM (inactive).
`CN1C(=O)c2cc(NC(=O)Cc3cccs3)ccc2OC[C@H]2O[C@H](CC(=O)N[C@H]3CCN(Cc4ccccc4)C3)CC[C@H]21`: the active concentration was > 10 µM (inactive).
To `CC(C)NC(=O)N1CC[C@@H]2[C@H]1c1cc(Br)ccc1N(C)[C@@H]2CO` belongs > 10 µM (inactive); to `COc1cccc(C(=O)Nc2ccc3c(c2)C(=O)N(C)[C@H]2CC[C@@H](CC(=O)NCCCN4CCOCC4)O[C@H]2CO3)c1`, > 10 µM (inactive).
`CN(C)C(=O)C[C@@H]1CC[C@H]2[C@@H](COC[C@@H](O)CN2CC2CCCC2)O1`: the active concentration is > 10 µM (inactive).
With `C[C@H](NC(=O)[C@H]1[C@H](CO)[C@H]2Cn3c(ccc(-c4ccncc4)c3=O)[C@H]2N1C)c1ccccc1`, the active concentration was > 10 µM (inactive).
For the compound `O=C(C[C@H]1CC[C@H]2[C@@H](COC[C@H](O)CN2Cc2cccc(F)c2)O1)NCc1cccc(F)c1`, the active concentration is > 10 µM (inactive).
With `CN1c2ccc(Br)cc2[C@H]2[C@H](CCN2C(=O)Nc2ccccc2F)[C@H]1CO`, the active concentration was > 10 µM (inactive).
As to `N#C[C@H]1[C@@H](c2ccccc2C2=CCCCC2)[C@H](CO)N1C(=O)c1cccc(F)c1`, the active concentration is > 10 µM (inactive).
With `O=C(C[C@H]1CC[C@@H]2[C@H](COC[C@@H](O)CN2Cc2ccccc2)O1)NCCc1ccccc1` the figure was > 10 µM (inactive); with `O=C1CN(S(=O)(=O)Cc2ccccc2)C[C@@H]2[C@@H](c3ccc(C#Cc4ccccc4)cc3)[C@@H](CO)N12`, > 10 µM (inactive).
With `O=C(CC(F)(F)F)N1C[C@H]2[C@@H](c3ccccc31)[C@@H](CO)N2CC1CCOCC1` the figure was > 10 µM (inactive); with `CCS(=O)(=O)N1CC2(C1)[C@@H](c1ccccc1)[C@@H](CO)N2C(=O)c1ccccc1`, > 10 µM (inactive); with `N#C[C@@H]1[C@H](c2ccccc2C2=CCCCC2)[C@H](CO)N1C(=O)C1CCOCC1`, > 10 µM (inactive).
To `O=C(C1CC1)N1CC2(C1)[C@H](c1ccccc1)[C@H](CO)N2Cc1nccs1` belongs > 10 µM (inactive); to `CCC(=O)N1[C@H](CO)[C@H]2c3ccccc3N(S(=O)(=O)c3ccccc3C)C[C@H]21`, > 10 µM (inactive).
For `O=S(=O)(c1ccccc1)N1CCCCN2[C@H](CO)[C@H](c3ccc(C#CC4CCCC4)cc3)[C@@H]2C1`, the active concentration was > 10 µM (inactive).
With `N#C[C@H]1[C@H](c2ccccc2-c2cccc(F)c2)[C@@H](CO)N1C(=O)CN1CCOCC1`, the active concentration is > 10 µM (inactive).
Take `CN1C(=O)c2cc(NC(=O)Cc3cccs3)ccc2OC[C@@H]2O[C@@H](CC(=O)N[C@H]3CCN(Cc4ccccc4)C3)CC[C@H]21`: the active concentration is > 10 µM (inactive).
Take `O=S(=O)(c1ccc(F)cc1)N1CCCCN2[C@@H](CO)[C@@H](c3ccc(-c4cncnc4)cc3)[C@@H]2C1`: the active concentration was > 10 µM (inactive).
`CC(=O)N1CC[C@@H]2[C@@H](CO)N(C)c3ccc(-c4ccc(C#N)cc4)cc3[C@@H]21`: the active concentration is > 10 µM (inactive).
As for `O=C(C[C@@H]1CC[C@@H]2[C@H](COC[C@@H](O)CN2Cc2nccs2)O1)NCc1ccccc1`, the active concentration was > 10 µM (inactive).
For `O=C(c1ccccc1)N1CC(=O)N2[C@H](CO)[C@H](c3ccc(-c4ccccc4)cc3)[C@@H]2C1`, the active concentration is > 10 µM (inactive).
`O=C(C1CCOCC1)N1CC(=O)N2[C@@H](CO)[C@@H](c3ccc(C#CCc4ccccc4)cc3)[C@@H]2C1`: the active concentration was > 10 µM (inactive).
Turning to `OC[C@H]1[C@H](c2ccc(Br)cc2)[C@H]2CN(Cc3ccccn3)CCCCN21`, the active concentration was less than 10 µM.
For `C/C=C/c1ccc([C@@H]2[C@@H](CO)N3CCCCN(S(=O)(=O)c4ccc(OC)cc4)C[C@H]23)cc1`, the active concentration was > 10 µM (inactive).
With `CN(C)C(=O)C[C@@H]1CC[C@@H]2[C@H](COC[C@@H](O)CN2CC2CC2)O1` the figure was > 10 µM (inactive); with `CC(C)NC(=O)N1CC[C@@H]2[C@H]1c1cc(Br)ccc1N(C)[C@H]2CO`, > 10 µM (inactive).
`O=C(C[C@H]1CC[C@H]2[C@@H](COC[C@@H](O)CN2C(=O)c2ccccc2F)O1)NCc1ccccc1`: the active concentration was > 10 µM (inactive).
